These results are taken from patent publication US12565505B2, “mTORC modulators and uses thereof” (Aeovian Pharmaceuticals, Inc., priority 2019, dated 2026).

For one test, the target named is T1, mTORC1 (Homo sapiens, UniProt P42345+P62942).
T1 construct: endogenous in cells; host or cells: PC3 cells (human prostate adenocarcinoma)
The experiment in a line: Inhibition assay for mTORC1: phosphorylation of pS6K at Thr389, AlphaLISA SureFire in PC3 cells. The class given is cell-based. The note with it: PC3 cells, 24 hours treatment, pS6K Thr389; analogs substituted at C40 and C16 (C16 diastereomer mixtures not isolated); read-out: pIC50 mTORC1 (converted). As to the method:
The IC50s of the inhibition of mTORC1 and mTORC2 were determined in vitro by determining the phosphorylation of pS6K at position Thr389 (mTORC1 inhibition) and pAkt at Ser473 (mTORC2 inhibition). In vitro studies were performed with AiphaLISA® technology using PC3 cells (Prostate Adenocarcinoma; Human (Homo sapiens)). The cells were seeded in 96 well plates and were treated for 24 hours with the different compounds. […] All analysis were performed using GraphPad Prism 7.0 (GraphPad Software, San Diego, USA).
Tables 5-7 include PIC50 values for mTORC1 of selected compounds; with compounds having an PIC50 for mTORC1 of >9.5 as A, 8.5 to 9.5 as B, and less than 8.5 as C.
A general note: In Alpha technology, singlet oxygen from a donor bead excites a nearby acceptor bead.

A further test deals with T2, mTORC2 (Homo sapiens, UniProt P42345+P62942).
T2 construct: endogenous in cells; host or cells: PC3 cells (human prostate adenocarcinoma)
The experiment in a line: Inhibition assay for mTORC2: phosphorylation of pAkt at Ser473, AlphaLISA SureFire in PC3 cells. The note with it: PC3 cells, 24 hours treatment, analogs substituted at C40 and C16 (C16 diastereomer mixtures not isolated), read-out: pIC50 mTORC2 (converted). The class given is cell-based. As for the experimental part:
The IC50s of the inhibition of mTORC1 and mTORC2 were determined in vitro by determining the phosphorylation of pS6K at position Thr389 (mTORC1 inhibition) and pAkt at Ser473 (mTORC2 inhibition). In vitro studies were performed with AiphaLISA® technology using PC3 cells (Prostate Adenocarcinoma; Human (Homo sapiens)). The cells were seeded in 96 well plates and were treated for 24 hours with the different compounds. […] All analysis were performed using GraphPad Prism 7.0 (GraphPad Software, San Diego, USA). […]

As for `COCCCCOC1C[C@@H]2CC[C@@H](C)[C@@](O)(O2)C(=O)C(=O)N2CCCCC2C(=O)O[C@H]([C@H](C)C[C@@H]2CC[C@@H](OCCCO)[C@H](OC)C2)CC(=O)[C@H](C)/C=C(\C)[C@@H](O)[C@@H](OC)C(=O)[C@H](C)C[C@H](C)/C=C/C=C/C=C/1C` (stereo partly drawn) [Compound 70, (1R,9S,12S,15R,16E,18R,19R,21R,23S,24E,26E,28E,32S,35R)-1,18-dihydroxy-12-[(1R)-2-[(1S,3R,4R)-4-(3-hydroxypropoxy)-3-methoxy-cyclohexyl]-1-methyl-ethyl]-19-methoxy-30-(4-methoxybutoxy)-15,17,21,23,29,35-hexamethyl-11,36-dioxa-4-azatricyclo[30.3.1.0^4,9]hexatriaconta-16,24,26,28-tetraene-2,3,10,14,20-pentone], the IC50 on mTORC1 is less than 0.316 nM; on mTORC2 it was 1000 to 10000 nM.
In the same order, the values of `CO[C@@H]1C[C@H](C[C@@H](C)[C@@H]2CC(=O)[C@H](C)/C=C(\C)[C@@H](O)[C@@H](OC)C(=O)[C@H](C)C[C@H](C)/C=C/C=C/C=C(\C)C(OC3COC3)C[C@@H]3CC[C@@H](C)[C@@](O)(O3)C(=O)C(=O)N3CCCCC3C(=O)O2)CC[C@H]1OC(=O)NCCN1CCOCC1` (stereo partly shown) [Compound 71] are 0.316 to 3.16 nM and more than 10000 nM.
As for `CO[C@@H]1C[C@H](C[C@@H](C)[C@@H]2CC(=O)[C@H](C)/C=C(\C)[C@@H](O)[C@@H](OC)C(=O)[C@H](C)C[C@H](C)/C=C/C=C/C=C(\C)C(OCCO)C[C@@H]3CC[C@@H](C)[C@@](O)(O3)C(=O)C(=O)N3CCCCC3C(=O)O2)CC[C@H]1OC(=O)NCCN1CCCCC1` (stereo partly shown) [Compound 72], the IC50 at mTORC1 is 0.316 to 3.16 nM; on mTORC2, more than 10000 nM.
Taken in the same sequence, the figures for `CO[C@@H]1C[C@H](C[C@@H](C)[C@@H]2CC(=O)[C@H](C)/C=C(\C)[C@@H](O)[C@@H](OC)C(=O)[C@H](C)C[C@H](C)/C=C/C=C/C=C(\C)C(OCC3COC3)C[C@@H]3CC[C@@H](C)[C@@](O)(O3)C(=O)C(=O)N3CCCCC3C(=O)O2)CC[C@H]1OCCO` (stereo partly shown) [Compound 75] were 0.316 to 3.16 nM and 1000 to 10000 nM.
In the same order, the values of `CO[C@@H]1C[C@H](C[C@@H](C)[C@@H]2CC(=O)[C@H](C)/C=C(\C)[C@@H](O)[C@@H](OC)C(=O)[C@H](C)C[C@H](C)/C=C/C=C/C=C(\C)C(OCCO)C[C@@H]3CC[C@@H](C)[C@@](O)(O3)C(=O)C(=O)N3CCCCC3C(=O)O2)CC[C@H]1OC(=O)NCCN1CCN(C)CC1` (stereo partly shown) [Compound 76] are 0.316 to 3.16 nM and more than 10000 nM.
Taken in the same sequence, the figures for `CO[C@@H]1C[C@H](C[C@@H](C)[C@@H]2CC(=O)[C@H](C)/C=C(\C)[C@@H](O)[C@@H](OC)C(=O)[C@H](C)C[C@H](C)/C=C/C=C/C=C(\C)C(OCCO)C[C@@H]3CC[C@@H](C)[C@@](O)(O3)C(=O)C(=O)N3CCCCC3C(=O)O2)CC[C@H]1OC(=O)N(C)CCCN(C)C` (stereo partly shown) [Compound 77] were 0.316 to 3.16 nM and more than 10000 nM.
For the compound `CO[C@@H]1C[C@H](C[C@@H](C)[C@@H]2CC(=O)[C@H](C)/C=C(\C)[C@@H](O)[C@@H](OC)C(=O)[C@H](C)C[C@H](C)/C=C/C=C/C=C(\C)C(OC(C)C)C[C@@H]3CC[C@@H](C)[C@@](O)(O3)C(=O)C(=O)N3CCCCC3C(=O)O2)CC[C@H]1OC(=O)NCCc1ccccc1` (stereo partly shown) [Compound 80], the IC50 was 0.316 to 3.16 nM on mTORC1 and more than 10000 nM at mTORC2.
Taken in the same sequence, the figures for `COCCOC1C[C@@H]2CC[C@@H](C)[C@@](O)(O2)C(=O)C(=O)N2CCCCC2C(=O)O[C@H]([C@H](C)C[C@@H]2CC[C@@H](OCCN3C[C@@H](C)O[C@@H](C)C3)[C@H](OC)C2)CC(=O)[C@H](C)/C=C(\C)[C@@H](O)[C@@H](OC)C(=O)[C@H](C)C[C@H](C)/C=C/C=C/C=C/1C` (stereo partly shown) [Compound 81] were 0.316 to 3.16 nM and 1000 to 10000 nM.
On to `CO[C@@H]1C[C@H](C[C@@H](C)[C@@H]2CC(=O)[C@H](C)/C=C(\C)[C@@H](O)[C@@H](OC)C(=O)[C@H](C)C[C@H](C)/C=C/C=C/C=C(\C)C(OCCO)C[C@@H]3CC[C@@H](C)[C@@](O)(O3)C(=O)C(=O)N3CCCCC3C(=O)O2)CC[C@H]1OC(=O)NCCN1CCOCC1` (stereo partly shown) [Compound 82], for which the IC50 was 0.316 to 3.16 nM on mTORC1 and 1000 to 10000 nM at mTORC2.
Taken in the same sequence, the figures for `CO[C@@H]1C[C@H](C[C@@H](C)[C@@H]2CC(=O)[C@H](C)/C=C(\C)[C@@H](O)[C@@H](OC)C(=O)[C@H](C)C[C@H](C)/C=C/C=C/C=C(\C)C(OCCO)C[C@@H]3CC[C@@H](C)[C@@](O)(O3)C(=O)C(=O)N3CCCCC3C(=O)O2)CC[C@H]1OC(=O)N(C)CCO` (stereo partly shown) [Compound 83] were 0.316 to 3.16 nM and 1000 to 10000 nM.
Taken in the same sequence, the figures for `CO[C@@H]1C[C@H](C[C@@H](C)[C@@H]2CC(=O)[C@H](C)/C=C(\C)[C@@H](O)[C@@H](OC)C(=O)[C@H](C)C[C@H](C)/C=C/C=C/C=C(\C)C(OCC3COC3)C[C@@H]3CC[C@@H](C)[C@@](O)(O3)C(=O)C(=O)N3CCCCC3C(=O)O2)CC[C@H]1OCCCO` (stereo partly shown) [Compound 84] were 0.316 to 3.16 nM and 1000 to 10000 nM.
As to `COCCOC1C[C@@H]2CC[C@@H](C)[C@@](O)(O2)C(=O)C(=O)N2CCCCC2C(=O)O[C@H]([C@H](C)C[C@@H]2CC[C@@H](OCCCN3CCC(O)CC3)[C@H](OC)C2)CC(=O)[C@H](C)/C=C(\C)[C@@H](O)[C@@H](OC)C(=O)[C@H](C)C[C@H](C)/C=C/C=C/C=C/1C` (stereo partly shown) [Compound 85], the IC50 at mTORC1 is 0.316 to 3.16 nM; on mTORC2, 1000 to 10000 nM.
Taken in the same sequence, the figures for `CO[C@@H]1C[C@H](C[C@@H](C)[C@@H]2CC(=O)[C@H](C)/C=C(\C)[C@@H](O)[C@@H](OC)C(=O)[C@H](C)C[C@H](C)/C=C/C=C/C=C(\C)C(OCC3CCOCC3)C[C@@H]3CC[C@@H](C)[C@@](O)(O3)C(=O)C(=O)N3CCCCC3C(=O)O2)CC[C@H]1OCCO` (stereo partly shown) [Compound 86] were 0.316 to 3.16 nM and 1000 to 10000 nM.
For `CO[C@@H]1C[C@H](C[C@@H](C)[C@@H]2CC(=O)[C@H](C)/C=C(\C)[C@@H](O)[C@@H](OC)C(=O)[C@H](C)C[C@H](C)/C=C/C=C/C=C(\C)C(OCCO)C[C@@H]3CC[C@@H](C)[C@@](O)(O3)C(=O)C(=O)N3CCCCC3C(=O)O2)CC[C@H]1OCCCN1CCCCC1` (stereo partly drawn) [Compound 87, (1R,9S,12S,15R,16E,18R,19R,21R,23S,24E,26E,28E,32S,35R)-1,18-dihydroxy-30-(2-hydroxyethoxy)-19-methoxy-12-[(1R)-2-[(1S,3R,4R)-3-methoxy-4-[3-(1-piperidyl)propoxy]cyclohexyl]-1-methyl-ethyl]-15,17,21,23,29,35-hexamethyl-11,36-dioxa-4-azatricyclo[30.3.1.0^4,9]hexatriaconta-16,24,26,28-tetraene-2,3,10,14,20-pentone], the results for the IC50 at mTORC1 and on mTORC2 were 0.316 to 3.16 nM and 1000 to 10000 nM, respectively.
Take `CO[C@@H]1C[C@H](C[C@@H](C)[C@@H]2CC(=O)[C@H](C)/C=C(\C)[C@@H](O)[C@@H](OC)C(=O)[C@H](C)C[C@H](C)/C=C/C=C/C=C(\C)C(OC[C@H](O)c3ccccc3)C[C@@H]3CC[C@@H](C)[C@@](O)(O3)C(=O)C(=O)N3CCCCC3C(=O)O2)CC[C@H]1OCCO` (stereo partly shown) [Compound 88]: the figures for the IC50 on mTORC1 and on mTORC2 were less than 0.316 nM and 1000 to 10000 nM, respectively.
In the same order, the values of `CO[C@@H]1C[C@H](C[C@@H](C)[C@@H]2CC(=O)[C@H](C)/C=C(\C)[C@@H](O)[C@@H](OC)C(=O)[C@H](C)C[C@H](C)/C=C/C=C/C=C(\C)C(OCCO)C[C@@H]3CC[C@@H](C)[C@@](O)(O3)C(=O)C(=O)N3CCCCC3C(=O)O2)CC[C@H]1OC(=O)NCCn1cnnn1` (stereo partly shown) [Compound 89] are 0.316 to 3.16 nM and 1000 to 10000 nM.
In the same order, the values of `CO[C@@H]1C[C@H](C[C@@H](C)[C@@H]2CC(=O)[C@H](C)/C=C(\C)[C@@H](O)[C@@H](OC)C(=O)[C@H](C)C[C@H](C)/C=C/C=C/C=C(\C)C(OC[C@@H](O)c3ccccc3)C[C@@H]3CC[C@@H](C)[C@@](O)(O3)C(=O)C(=O)N3CCCCC3C(=O)O2)CC[C@H]1OCCCO` (stereo partly shown) [Compound 90] are less than 0.316 nM and 1000 to 10000 nM.
Taken in the same sequence, the figures for `CO[C@@H]1C[C@H](C[C@@H](C)[C@@H]2CC(=O)[C@H](C)/C=C(\C)[C@@H](O)[C@@H](OC)C(=O)[C@H](C)C[C@H](C)/C=C/C=C/C=C(\C)C(OCC(C)(C)O)C[C@@H]3CC[C@@H](C)[C@@](O)(O3)C(=O)C(=O)N3CCCCC3C(=O)O2)CC[C@H]1OCCO` (stereo partly shown) [Compound 91] were 0.316 to 3.16 nM and 1000 to 10000 nM.
Consider `CO[C@@H]1C[C@H](C[C@@H](C)[C@@H]2CC(=O)[C@H](C)/C=C(\C)[C@@H](O)[C@@H](OC)C(=O)[C@H](C)C[C@H](C)/C=C/C=C/C=C(\C)C(OC[C@@H](O)c3ccccc3)C[C@@H]3CC[C@@H](C)[C@@](O)(O3)C(=O)C(=O)N3CCCCC3C(=O)O2)CC[C@H]1OCCCN1CCOCC1` (stereo partly shown) [Compound 92], for which the values for the IC50 on mTORC1 and at mTORC2 were less than 0.316 nM and 1000 to 10000 nM, respectively.
On to `CO[C@@H]1C[C@H](C[C@@H](C)[C@@H]2CC(=O)[C@H](C)/C=C(\C)[C@@H](O)[C@@H](OC)C(=O)[C@H](C)C[C@H](C)/C=C/C=C/C=C(\C)C(OCCc3ccccc3)C[C@@H]3CC[C@@H](C)[C@@](O)(O3)C(=O)C(=O)N3CCCCC3C(=O)O2)CC[C@H]1OC(=O)NCCN1CCOCC1` (stereo partly shown) [Compound 93], for which the IC50 on mTORC1 is less than 0.316 nM; at mTORC2 it was less than 1000 nM.
